# Data published in patent US7071211B2, “Small organic molecules that increase the activity of gelatinase a in ocular cells” (Bausch & Lomb Inc., priority 2002, dated 2006).
# Experiments:
# MT-MMP [1] = experiment: Thiopeptolide assay of cell-associated gelatinase activity ascribed to MT-MMP in TM cells; format: cell-based, Rhesus monkey; settings: for Percent Activation Over control value: 48 hours incubation, OD 410 nm vs CACM control
# Procedure: Two days before molecule testing, the medium is replace by a defined, serum-free medium such as Minimum Essential Medium (MEM) containing defined supplements as described by Schachtschabel and Binninger, Z.f.Gerontol. […] Unless specifically noted, all molecules tested were prepared as stock solutions in dimethyl sulfoxide (DMSO) with a final concentration of 10 mg/ml. The stocks were stored in a dessicator at −20 degrees Celsius. In testing the molecules, the molecules were diluted to final concentrations of 0.3 ug/ml and 15 ug/ml in a simplified culture medium based on Ames' medium, called Concanavalin A (Con A) conditioning medium (CACM). The monkey TM cells were incubated with the test molecules for 48 hours. Control medium of CACM plus DMSO and a positive control with 5 ug/ml Con A plus DMSO were run in parallel. […] Next 100 uL of a doubly (2×) concentrated mixture of the thiopeptolide substrate (from a forty times (40×) concentrated DMSO stock, to give 1 mmol/L final concentration) freshly combined with the thiol reagent (5,5′dithiobis(2-nitrobenzoic acid (DTNB) from a twenty times (20×) concentrated DMSO stock to give 1 mmol/L) were added to each well and were incubated at 37 degrees Celsius for two hours with gentle agitation.
# At the end of the incubation period, by means of a spectrophoto-metric plate reader, the optical density (OD) at 410 nm was determined for each well after automatic subtraction of a blank value for a well containing reaction mixture but without cells. The average OD at the two-hour end point for each test molecule at all concentrations in triplicate was calculated. This calculation was interpreted to be a measure of cell-associated MT-MMP level, equivalently defined as either its activity (a catalytic property of the enzyme) or expression (number of functional molecules). The percent difference in OD for each sample compared to the CACM control reflects the effectiveness of each test molecule or combination of molecules in eliciting increases in MT-MMP levels. As an alternate to the end point OD reading, one may use the mean rate of appearance of the reaction product (mean V), calculated from the best linear fit of the data to absorbance vs. time.
# TM cells were exposed to molecules and combinations of molecules by means of simultaneous addition, from separate stocks, to incubation medium.
# MT-MMP [2] = experiment: Co-activation thiopeptolide assay (test compound with Con A or a second test compound) in TM cells; format: cell-based, Rhesus monkey
# Text: Concanavalin A (Con A) binds to mannose groups on cell membrane gycoproteins. Because of its tetravalent nature, Con A binding leads to oligomerization of these “receptors,” possibly in the form of heterogeneous aggregates. Con A stimulation elicits increased expression of MT-MMP with concomitant ability to activate proGelA. The response, as measured by the magnitude of zymographic bands and by thiopeptolide assay, is dose-dependent. Thus the effects of co-activation using a submaximal dose of Con A plus treatment with a small molecule that may or may not be active by itself, are measured in the subject activation assay.
# For the coactivation assays, following the preliminary steps set forth above preceding incubation with test compounds in Example 1, cells subsequently undergo one of the following protocols. • Protocol 1. Cells are incubated with a particular test compound for twenty-four hours. This incubation period is followed by a second twenty-four hour incubation period, in which the culture medium containing the first test compound is completely replaced by medium containing 5 ug/ml Con A. • Protocol 2. Cells are incubated with a particular first test compound for twenty-four hours, followed by a second forty-eight hour incubation in which the medium containing the first test compound is completely replaced by medium containing either Con A, as described above, or a second test compound. • Protocol 3. Cells are incubated with a combination of a test compound together with 5 ug/ml Con A for forty-eight hours.
# Two controls, with or without 5 ug/ml Con A are run in parallel as described in Example 1. After incubation with these agents, cells are processed in equivalently to those in Example 1. Instead of comparison of the OD values with a CACM control, the results are compared with samples using Con A alone, or with a single test compound as described in Protocol 2 above, as set forth in Table 5 below.
# MT1-MMP [3] = settings: human cervical fibroblasts; Ito et al. 1998; cited from earlier work
# MT1-MMP [4] = settings: Alexander and Acott 1999; cited from earlier work
compound,measurement,setting,value
N#C/C(=N\OC(=O)N1CCCCC1)c1c(F)cccc1F [Molecule 2],Percent Activation Over control value,MT-MMP [1]; Conc. 1.0 umol/L,33.8%
same,Percent Activation Over control value,MT-MMP [1]; Conc. 51.1.1 umol/L,420.5%
COc1ccc(/C(C#N)=N/OC(=O)N2CCCCC2)cc1OC [Molecule 1],Percent Activation Over control value,MT-MMP [1]; Conc. 0.9 umol/L,48.1%
same,Percent Activation Over control value,MT-MMP [1]; Conc. 47.31 umol/L,260.4%
CC(C#N)c1ccc2c(c1)N(C)C1C=CC=CC1S2 (stereo not shown) [Molecule 13],"Activity (% increase over Con A above, or as otherwise noted)","MT-MMP [2]; Protocol 1 (24 h test compound, then 24 h 5 ug/ml Con A), Conc. 1.1 umol/L with Con A",18.1%
same,"Activity (% increase over Con A above, or as otherwise noted)","MT-MMP [2]; Protocol 1 (24 h test compound, then 24 h 5 ug/ml Con A), Conc. 55.9 umol/L with Con A",109.5%
same,Percent Activation Over control value,MT-MMP [1]; Conc. 1.1 umol/L,74.6%
same,Percent Activation Over control value,MT-MMP [1]; Conc. 55.9 umol/L,68.5%
CNC(=O)N(CCOc1cccc(Cl)c1Cl)C(C)C [Molecule 7],"Activity (% increase over Con A above, or as otherwise noted)","MT-MMP [2]; Protocol 2 (24 h test compound, then 48 h Con A), Conc. 49.1 umol/L with Con A",59.8%
same,Percent Activation Over control value,MT-MMP [1]; Conc. 1.0 umol/L,(−7.9) Percent
same,Percent Activation Over control value,MT-MMP [1]; Conc. 49.2 umol/L,274.0%
CSC(=N)N/N=C/c1c(Cl)cccc1Cl [Molecule 11],Percent Activation Over control value,MT-MMP [1]; Conc. 1.14 umol/L,(−20.9) Percent
same,Percent Activation Over control value,MT-MMP [1]; Conc. 57.22 umol/L,88.1%
Cc1cccc(Cl)c1/C=N/NC(=N)N [Molecule 8],Percent Activation Over control value,MT-MMP [1]; Conc. 2.6 umol/L,2.9%
same,Percent Activation Over control value,MT-MMP [1]; Conc. 12.98 umol/L,12.7%
same,Percent Activation Over control value,MT-MMP [1]; Conc. 64.91 umol/L,54.3%
same,Percent Activation Over control value,MT-MMP [1]; Conc. 129.81 umol/L,106.8%
CC(C)N(CCCOc1cccc2ccccc12)C(N)=O [Molecule 6],"Activity (% increase over Con A above, or as otherwise noted)","MT-MMP [2]; Protocol 1 (24 h test compound, then 24 h 5 ug/ml Con A), Conc. 104.8 umol/L with Con A",183.9%
same,"Activity (% increase over Con A above, or as otherwise noted)","MT-MMP [2]; Protocol 2 (24 h test compound, then 48 h Con A), Conc. 34.9 umol/L with Con A",49.0%
same,"Activity (% increase over Con A above, or as otherwise noted)","MT-MMP [2]; Protocol 2 (24 h test compound, then 48 h Con A), Conc. 100.0 umol/L with Con A",70.9%
same,Percent Activation Over control value,MT-MMP [1]; Conc. 1.0 umol/L,2.2%
same,Percent Activation Over control value,MT-MMP [1]; Conc. 52.4 umol/L,207.9%
N=C(N)NNC(O)c1c(Cl)cccc1Cl (stereo not shown) [Molecule 12],Percent Activation Over control value,MT-MMP [1]; Conc. 1.05 umol/L,3.2%
same,Percent Activation Over control value,MT-MMP [1]; Conc. 52.53 umol/L,101.6%
CC/C(=N\NC(=N)N)c1ccccc1 [Molecule 9],Percent Activation Over control value,MT-MMP [1]; Conc. 1.18 umol/L,21.4%
same,Percent Activation Over control value,MT-MMP [1]; Conc. 118.44 umol/L,82.4%
"Concanavalin A [Con A, reference compound]",Increased expression of MT-MMP on Con A stimulation (response),MT-MMP [1]; measured by magnitude of zymographic bands and by thiopeptolide assay,dose-dependent
NC(=O)N1c2ccccc2C=Cc2ccccc21 [Molecule 14],Percent Activation Over control value,MT-MMP [1]; Conc. 1.27 umol/L,7.7%
same,Percent Activation Over control value,MT-MMP [1]; Conc. 63.49 umol/L,115.6%
CN1CCN(CCCN2c3ccccc3Sc3ccc(C(F)(F)F)cc32)CC1 [trifluoperazine],MT1-MMP-induced activation of Gelatinase A (GelA),MT1-MMP [3],resulted in MT1-MMP-induced activation of Gelatinase A
"CCCCCCCCCCCCCC(=O)O[C@@H]1[C@@H](C)[C@@]2(O)[C@@H](C=C(CO)C[C@]3(O)C(=O)C(C)=C[C@@H]23)[C@@H]2C(C)(C)[C@]12OC(C)=O [phorbol ester, phorbol 12-myristate 13-acetate]",Expression of MT1-MMP,MT1-MMP [4],increased expression of MT1-MMP
CC(C)N(CC(O)COc1cccc2ccccc12)C(N)=O (stereo not shown) [Molecule 4],Percent Activation Over control value,MT-MMP [1]; Conc. 1.0 umol/L,5.9%
same,Percent Activation Over control value,MT-MMP [1]; Conc. 49.6 umol/L,73.4%
NCCCCCCNS(=O)(=O)c1cccc2c(Cl)cccc12 [Molecule W-7],MT1-MMP-induced activation of Gelatinase A (GelA),MT1-MMP [3],not particularly pronounced
